Earlier results, collected in US20160339123A1, “POLYBUTYLACRYLATE-BASED NANOCOMPOSITE PHOTOACOUSTIC IMAGING AGENT AND A PREPARATION METHOD THEREOF” (Wenzhou Institute of Biomaterials and Engineering, priority 2015, published 2016).

Conditions: near infrared region

absorption peak [nm]	SMILES
~664	CN(C)c1ccc2nc3ccc(=[N+](C)C)cc-3sc2c1 [methylene blue]
~780	CC1(C)C(/C=C/C=C/C=C/C=C2\N(CCCCS(=O)(=O)O)c3ccc4ccccc4c3C2(C)C)=[N+](CCCCS(=O)(=O)[O-])c2ccc3ccccc3c21 [indocyanine green]
